Results published in the NIST ThermoML archive (doi:10.1021/je500498m).

Assay: xn = mol fraction of the nth substance listed
Details: for speed of sound: 100 kPa, Sing-around technique in a fixed-path interferometer; for speed of sound / viscosity / mass density: Liquid; for viscosity / mass density: 101 kPa; for viscosity: Falling or rolling sphere viscometry; for mass density: Vibrating tube method; for surface tension liquid-gas: 294.4 K, Pendant drop shape

CCCCCCCCCCCCCCCC [hexadecane] + CCc1ccccc1
Details	mass density [kg/m3]	speed of sound [m/s]	viscosity [mPa·s]
293.15 K, x2 = 0	773.49	1357.3	3.44
293.15 K, x2 = 0.1007	777.15	1353.4	3.01
293.15 K, x2 = 0.2	781.37	1349.4	2.63
293.15 K, x2 = 0.3002	786.28	1345.2	2.28
293.15 K, x2 = 0.4013	792.08	1340.7	1.96
293.15 K, x2 = 0.5002	798.81	1336.7	1.69
293.15 K, x2 = 0.6001	806.86	1333.1	1.43
293.15 K, x2 = 0.7002	816.95	1330.4	1.21
293.15 K, x2 = 0.8001	829.46	1329.3	1.01
293.15 K, x2 = 0.9	845.47	1331.5	0.83
303.15 K, x2 = 0	766.55	1320	2.72
303.15 K, x2 = 0.1007	770.16	1316	2.42
303.15 K, x2 = 0.2	774.31	1312	2.14
303.15 K, x2 = 0.3002	779.13	1307.8	1.88
303.15 K, x2 = 0.4013	784.83	1303.1	1.64
303.15 K, x2 = 0.5002	791.42	1298.9	1.42
303.15 K, x2 = 0.6001	799.32	1295	1.23
303.15 K, x2 = 0.7002	809.21	1291.9	1.05
303.15 K, x2 = 0.8001	821.46	1291.1	0.88
303.15 K, x2 = 0.9	837.13	1291.3	0.73
313.15 K, x2 = 0	759.63	1283.3	–
313.15 K, x2 = 0.1007	763.17	1279.2	–
313.15 K, x2 = 0.2	767.24	1275.1	–
313.15 K, x2 = 0.3002	771.97	1270.8	–
313.15 K, x2 = 0.4013	777.56	1266	–
313.15 K, x2 = 0.5002	784.01	1261.6	–
313.15 K, x2 = 0.6001	791.75	1257.4	–
313.15 K, x2 = 0.7002	801.42	1253.8	–
313.15 K, x2 = 0.8001	813.41	1251.3	–
313.15 K, x2 = 0.9	828.73	1251.6	–
323.15 K, x2 = 0	752.71	1247.3	1.82
323.15 K, x2 = 0.1007	756.18	1243.2	1.65
323.15 K, x2 = 0.2	760.17	1239	1.49
323.15 K, x2 = 0.3002	764.8	1234.5	1.34
323.15 K, x2 = 0.4013	770.27	1229.4	1.19
323.15 K, x2 = 0.5002	776.58	1224.8	1.05
323.15 K, x2 = 0.6001	784.14	1220.3	0.92
323.15 K, x2 = 0.7002	793.6	1216.2	0.8
323.15 K, x2 = 0.8001	805.42	1213.1	0.68
323.15 K, x2 = 0.9	820.29	1212.5	0.57
333.15 K, x2 = 0	745.79	1212	1.53
333.15 K, x2 = 0.1007	749.19	1207.7	1.4
333.15 K, x2 = 0.2	753.09	1203.4	1.28
333.15 K, x2 = 0.3002	757.62	1198.8	1.15
333.15 K, x2 = 0.4013	762.96	1193.6	1.03
333.15 K, x2 = 0.5002	769.13	1188.6	0.92
333.15 K, x2 = 0.6001	776.51	1183.8	0.81
333.15 K, x2 = 0.7002	785.74	1179.2	0.7
333.15 K, x2 = 0.8001	797.18	1175.5	0.6
333.15 K, x2 = 0.9	811.8	1173.9	0.52
343.15 K, x2 = 0	738.9	–	1.31
343.15 K, x2 = 0.1007	742.2	–	1.21
343.15 K, x2 = 0.2	746	–	1.1
343.15 K, x2 = 0.3002	750.4	–	1.01
343.15 K, x2 = 0.4013	755.6	–	0.9
343.15 K, x2 = 0.5002	761.6	–	0.81
343.15 K, x2 = 0.6001	768.9	–	0.71
343.15 K, x2 = 0.7002	777.9	–	0.62
343.15 K, x2 = 0.8001	789	–	0.54
343.15 K, x2 = 0.9	803.3	–	0.47
353.15 K, x2 = 0	731.8	–	1.13
353.15 K, x2 = 0.1007	735	–	1.05
353.15 K, x2 = 0.2	738.7	–	0.96
353.15 K, x2 = 0.3002	743	–	0.88
353.15 K, x2 = 0.4013	748.1	–	0.8
353.15 K, x2 = 0.5002	754	–	0.71
353.15 K, x2 = 0.6001	761.1	–	0.64
353.15 K, x2 = 0.7002	769.8	–	0.56
353.15 K, x2 = 0.8001	780.7	–	0.49
353.15 K, x2 = 0.9	794.5	–	0.43
363.15 K, x2 = 0	724.7	–	0.99
363.15 K, x2 = 0.1007	727.8	–	0.92
363.15 K, x2 = 0.2	731.5	–	0.85
363.15 K, x2 = 0.3002	735.6	–	0.78
363.15 K, x2 = 0.4013	740.6	–	0.7
363.15 K, x2 = 0.5002	746.3	–	0.63
363.15 K, x2 = 0.6001	753.1	–	0.58
363.15 K, x2 = 0.7002	761.6	–	0.51
363.15 K, x2 = 0.8001	772.2	–	0.45
363.15 K, x2 = 0.9	785.6	–	0.39
373.15 K, x2 = 0	717.5	–	0.87
373.15 K, x2 = 0.1007	720.6	–	0.82
373.15 K, x2 = 0.2	724.1	–	0.76
373.15 K, x2 = 0.3002	728.1	–	0.69
373.15 K, x2 = 0.4013	732.9	–	0.63
373.15 K, x2 = 0.5002	738.4	–	0.57
373.15 K, x2 = 0.6001	745.1	–	0.52
373.15 K, x2 = 0.7002	753.3	–	0.47
373.15 K, x2 = 0.8001	763.6	–	0.41
373.15 K, x2 = 0.9	776.6	–	0.36

Details	surface tension liquid-gas [mN/m]
x2 = 0	27.3
x2 = 0.2	27.4
x2 = 0.4013	27.5
x2 = 0.5002	27.5
x2 = 0.6001	27.8
x2 = 0.7002	28
x2 = 0.8001	28.2
x2 = 0.9	28.5
